Target: T1, Estrogen Receptor (ERα) in MCF-7 human ductal carcinoma breast cell line (Homo sapiens, UniProt P03372)
T1 construct: endogenous in cells; host or cells: MCF-7
T1 sequence (P03372 1-595): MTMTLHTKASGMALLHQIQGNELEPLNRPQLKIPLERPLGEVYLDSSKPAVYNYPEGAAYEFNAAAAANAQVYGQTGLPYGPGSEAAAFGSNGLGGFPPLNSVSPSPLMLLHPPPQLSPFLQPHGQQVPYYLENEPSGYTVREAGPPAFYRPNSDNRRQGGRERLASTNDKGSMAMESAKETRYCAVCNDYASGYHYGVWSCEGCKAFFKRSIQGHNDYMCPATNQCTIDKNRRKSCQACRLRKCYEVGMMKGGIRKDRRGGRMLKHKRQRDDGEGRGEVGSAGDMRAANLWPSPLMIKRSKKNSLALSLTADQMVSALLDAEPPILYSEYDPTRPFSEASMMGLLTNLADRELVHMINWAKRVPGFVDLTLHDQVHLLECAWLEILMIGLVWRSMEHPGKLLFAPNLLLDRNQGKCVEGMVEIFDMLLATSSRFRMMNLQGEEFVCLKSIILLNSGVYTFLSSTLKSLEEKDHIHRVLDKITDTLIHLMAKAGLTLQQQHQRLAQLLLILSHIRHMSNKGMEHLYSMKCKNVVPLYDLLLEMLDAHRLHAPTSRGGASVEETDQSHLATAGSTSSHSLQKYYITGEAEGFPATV
Test: MCF-7 ER degradation assay (cell based immuno-fluorescence)
Settings: MCF-7 cells; for ER degradation ≥ 90% at 0.3 μM: ER degradation by fulvestrant at 0.3 μM is defined as 100%; for DC50: 18-22 hours incubation, 50% reduction of ERα expression, single experiment or average of two or more, read-out: MCF-7 ER degradation IC50
Summary of the method: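 MCF-7 human ductal carcinoma breast cells were seeded at 3.75×10^4 cells per mL (40 μL per well) in 384 well plates with phenol red free DMEM containing 2 mM L-Glutamine and 5% (v/v) Charcoal/Dextran treated foetal calf serum. After overnight culture, compounds were acoustically dispensed, incubated 18-22 hours, then cells were formaldehyde-fixed and immunostained for ERα.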

Cc1ncsc1-c1ccc(CNC(=O)[C@@H]2C[C@@H](O)CN2C(=O)[C@@H](NC(=O)COCCOCCOCCOCCOCC(=O)Nc2ccc([C@@H]3c4[nH]c5ccccc5c4C[C@@H](C)N3CC(C)(C)F)cc2)C(C)(C)C)cc1 [Example 56, N^1-(4-((1R,3R)-2-(2-fluoro-2-methylpropyl)-3-methyl-2,3,4,9-tetrahydro-1H-pyrido[3,4-b]indol-1-yl)phenyl)-N^17—((S)-1-((2S,4R)-4-hydroxy-2-((4-(4-methylthiazol-5-yl)benzyl)carbamoyl)pyrrolidin-1-yl)-3,3-dimethyl-1-oxobutan-2-yl)-3,6,9,12,15-pentaoxaheptadecanediamide, Trifluoroacetic Acid]
ER degradation ≥ 90% at 0.3 μM: •• | DC50: 1500 pM

Cc1ncsc1-c1ccc(CNC(=O)[C@@H]2C[C@@H](O)CN2C(=O)[C@@H](NC(=O)COCCCOCCOc2cc(F)c([C@@H]3c4[nH]c5ccccc5c4C[C@@H](C)N3CC(F)(F)F)c(F)c2)C(C)(C)C)cc1 [Example 94, (2S,4R)-1-((S)-2-(2-(3-(2-(3,5-Difluoro-4-((1R,3R)-3-methyl-2-(2,2,2-trifluoroethyl)-2,3,4,9-tetrahydro-1H-pyrido[3,4-b]indol-1-yl)phenoxy)ethoxy)propoxy)acetamido)-3,3-dimethylbutanoyl)-4-hydroxy-N-(4-(4-methylthiazol-5-yl)benzyl)pyrrolidine-2-carboxamide]
ER degradation ≥ 90% at 0.3 μM: • | DC50: 600 pM

Cc1ncsc1-c1ccc(CNC(=O)[C@@H]2C[C@@H](O)CN2C(=O)[C@@H](NC(=O)COCCOCCOCCOCC(=O)Nc2ccc([C@@H]3c4[nH]c5ccccc5c4C[C@@H](C)N3CC(C)(C)F)cc2)C(C)(C)C)cc1 [Example 55, N^1-(4-((1R,3R)-2-(2-fluoro-2-methylpropyl)-3-methyl-2,3,4,9-tetrahydro-1H-pyrido[3,4-b]indol-1-yl)phenyl)-N^14—((S)-1-((2S,4R)-4-hydroxy-2-((4-(4-methylthiazol-5-yl)benzyl)carbamoyl)pyrrolidin-1-yl)-3,3-dimethyl-1-oxobutan-2-yl)-3,6,9,12-tetraoxatetradecanediamide, Trifluoroacetic Acid]
ER degradation ≥ 90% at 0.3 μM: • | DC50: 1200 pM

Cc1ncsc1-c1ccc(CNC(=O)[C@@H]2C[C@@H](O)CN2C(=O)[C@@H](NC(=O)COCCOCCOCC(=O)Nc2ccc([C@@H]3c4[nH]c5ccccc5c4C[C@@H](C)N3CC(C)(C)F)cc2)C(C)(C)C)cc1 [Example 57, (2S,4R)-1-((S)-2-(tert-butyl)-14-((4-((1R,3R)-2-(2-fluoro-2-methylpropyl)-3-methyl-2,3,4,9-tetrahydro-1H-pyrido[3,4-b]indol-1-yl)phenyl)amino)-4,14-dioxo-6,9,12-trioxa-3-azatetradecanoyl)-4-hydroxy-N-(4-(4-methylthiazol-5-yl)benzyl)pyrrolidine-2-carboxamide, Trifluoroacetic Acid]
ER degradation ≥ 90% at 0.3 μM: • | DC50: 900 pM

Cc1ncsc1-c1ccc(CNC(=O)[C@@H]2C[C@@H](O)CN2C(=O)[C@@H](NC(=O)COCCOCCOCCOCC(=O)Nc2cc(F)c([C@@H]3c4[nH]c5ccccc5c4C[C@@H](C)N3CC(C)(C)F)c(F)c2)C(C)(C)C)cc1 [Example 68, N1-(3,5-difluoro-4-((1R,3R)-2-(2-fluoro-2-methylpropyl)-3-methyl-2,3,4,9-tetrahydro-1H-pyrido[3,4-b]indol-1-yl)phenyl)-N14-((S)-1-((2S,4R)-4-hydroxy-2-((4-(4-methylthiazol-5-yl)benzyl)carbamoyl)pyrrolidin-1-yl)-3,3-dimethyl-1-oxobutan-2-yl)-3,6,9,12-tetraoxatetradecanediamide]
ER degradation ≥ 90% at 0.3 μM: •• | DC50: 6200 pM

Cc1ncsc1-c1ccc(CNC(=O)[C@@H]2C[C@@H](O)CN2C(=O)[C@@H](NC(=O)Cc2ccc(OCCOCCNC(=O)/C=C/c3cc(F)c([C@@H]4c5[nH]c6ccccc6c5C[C@@H](C)N4CC(C)(C)F)c(F)c3)cc2)C(C)(C)C)cc1 [Example 66, (2S,4R)-1-((S)-2-(2-(4-(2-(2-((E)-3-(3,5-difluoro-4-((1R,3R)-2-(2-fluoro-2-methylpropyl)-3-methyl-2,3,4,9-tetrahydro-1H-pyrido[3,4-b]indol-1-yl)phenyl)acrylamido)ethoxy)ethoxy)phenyl)acetamido)-3,3-dimethylbutanoyl)-4-hydroxy-N-(4-(4-methylthiazol-5-yl)benzyl)pyrrolidine-2-carboxamide, Trifluoroacetic Acid]
ER degradation ≥ 90% at 0.3 μM: • | DC50: 2200 pM

Cc1ncsc1-c1ccc(CNC(=O)[C@@H]2C[C@@H](O)CN2C(=O)[C@@H](NC(=O)COCCOCCCCCOc2cc(F)c([C@@H]3c4[nH]c5ccccc5c4C[C@@H](C)N3CC(C)(C)F)c(F)c2)C(C)(C)C)cc1 [Example 97, (2S,4R)-1-((S)-2-(2-(2-((5-(3,5-Difluoro-4-((1R,3R)-2-(2-fluoro-2-methylpropyl)-3-methyl-2,3,4,9-tetrahydro-1H-pyrido[3,4-b]indol-1-yl)phenoxy)pentyl)oxy)ethoxy)acetamido)-3,3-dimethylbutanoyl)-4-hydroxy-N-(4-(4-methylthiazol-5-yl)benzyl)pyrrolidine-2-carboxamide]
ER degradation ≥ 90% at 0.3 μM: •• | DC50: 800 pM

Cc1ncsc1-c1ccc(CNC(=O)[C@@H]2C[C@@H](O)CN2C(=O)[C@@H](NC(=O)COCCO[C@@H](C)[C@H](C)OCCOc2cc(F)c([C@@H]3c4[nH]c5ccccc5c4C[C@@H](C)N3CC(C)(C)F)c(F)c2)C(C)(C)C)cc1 [Example 82, (2S,4R)-1-((2S,10S,11S)-2-(tert-butyl)-14-(3,5-difluoro-4-((1R,3R)-2-(2-fluoro-2-methylpropyl)-3-methyl-2,3,4,9-tetrahydro-1H-pyrido[3,4-b]indol-1-yl)phenoxy)-10,11-dimethyl-4-oxo-6,9,12-trioxa-3-azatetradecanoyl)-4-hydroxy-N-(4-(4-methylthiazol-5-yl)benzyl)pyrrolidine-2-carboxamide]
ER degradation ≥ 90% at 0.3 μM: •• | DC50: 200 pM

Cc1ncsc1-c1ccc(CNC(=O)[C@@H]2C[C@@H](O)CN2C(=O)[C@@H](NC(=O)COCCO[C@H](C)[C@@H](C)OCCOc2cc(F)c([C@@H]3c4[nH]c5ccccc5c4C[C@@H](C)N3CC(C)(C)F)c(F)c2)C(C)(C)C)cc1 [Example 80, (2S,4R)-1-((2S,10R,11R)-2-(tert-butyl)-14-(3,5-difluoro-4-((1R,3R)-2-(2-fluoro-2-methylpropyl)-3-methyl-2,3,4,9-tetrahydro-1H-pyrido[3,4-b]indol-1-yl)phenoxy)-10,11-dimethyl-4-oxo-6,9,12-trioxa-3-azatetradecanoyl)-4-hydroxy-N-(4-(4-methylthiazol-5-yl)benzyl)pyrrolidine-2-carboxamide]
ER degradation ≥ 90% at 0.3 μM: •• | DC50: 700 pM

Cc1ncsc1-c1ccc(CNC(=O)[C@@H]2C[C@@H](O)CN2C(=O)[C@@H](NC(=O)COCCOCCOCCOc2cc(F)c([C@@H]3c4[nH]c5ccccc5c4C[C@@H](C)N3CC(F)(F)CO)c(F)c2)C(C)(C)C)cc1 [Example 71, (2S,4R)-1-((S)-2-(tert-Butyl)-14-(4-((1R,3R)-2-(2,2-difluoro-3-hydroxypropyl)-3-methyl-2,3,4,9-tetrahydro-1H-pyrido[3,4-b]indol-1-yl)-3,5-difluorophenoxy)-4-oxo-6,9,12-trioxa-3-azatetradecanoyl)-4-hydroxy-N-(4-(4-methylthiazol-5-yl)benzyl)pyrrolidine-2-carboxamide]
ER degradation ≥ 90% at 0.3 μM: • | DC50: 500 pM

Cc1ncsc1-c1ccc(CNC(=O)[C@@H]2C[C@@H](O)CN2C(=O)[C@@H](NC(=O)COCCCCOCCCOc2cc(F)c([C@@H]3c4[nH]c5ccccc5c4C[C@@H](C)N3CC(C)(C)F)c(F)c2)C(C)(C)C)cc1 [Example 93]
ER degradation ≥ 90% at 0.3 μM: • | DC50: 900 pM

Cc1ncsc1-c1ccc(CNC(=O)[C@@H]2C[C@@H](O)CN2C(=O)[C@@H](NC(=O)COCCOCCOCCCCNC(=O)c2cc(F)c([C@@H]3c4[nH]c5ccccc5c4C[C@@H](C)N3CC(C)(C)F)c(F)c2)C(C)(C)C)cc1 [Example 83, (2S,4R)-1-((S)-17-(tert-Butyl)-1-(3,5-difluoro-4-((1R,3R)-2-(2-fluoro-2-methylpropyl)-3-methyl-2,3,4,9-tetrahydro-1H-pyrido[3,4-b]indol-1-yl)phenyl)-1,15-dioxo-7,10,13-trioxa-2,16-diazaoctadecan-18-oyl)-4-hydroxy-N-(4-(4-methylthiazol-5-yl)benzyl)pyrrolidine-2-carboxamide]
ER degradation ≥ 90% at 0.3 μM: •• | DC50: 600 pM

From US10519152B2, “Compounds and their use in treating cancer” (AstraZeneca AB, priority 2017, dated 2019)
